2 molecules from patent EP0934745B1, “Use of androsterone derivatives for inhibiting DNA binding of ap-1 and airway smooth muscle proliferation” (CHARLOTTE-MECKLENBURG HOSPITAL doing business as Carolinas …, priority 1998, dated 1999) can be followed below.

The inhibition is the share of the control response that was lost under treatment.

For assay [1], the target named is T1, glucose-6-phosphate dehydrogenase (G6PDH) (Rattus norvegicus, UniProt P05370).
T1 construct: endogenous in cells; host or cells: primary rat tracheal (airway) smooth muscle cells
Kind of assay: G6PDH activity after pretreatment of intact airway smooth muscle monolayers. The assay is classed as cell-based. The settings on record: for G6PDH activity of subsequent cell lysates: monolayers pretreated with concentrations that inhibited cell proliferation, result in words. As to the method:
(§1) After 1 hour cells were lysed and G6PDH activity was assayed as described below. In other experiments, G6PDH activity was measured in cell lysates prepared from untreated confluent cultures and treated in vitro with DHEA or 16α-BrEA added to the reaction mixture in 5 µl DMSO. […] Ribonucleosides or deoxyribonucleosides were dissolved in 0.5 ml of 1 N HCl and added to DMEM. The pH of the medium was adjusted to 7.1 by titration with 1 N NaOH, and medium was then sterilized by passage through a […] filter. Growth was measured by MTT reduction after 24, 48 and 96 hours.
(§2) To determine if DHEA or its analogs induced programmed cell death, confluent cultures in 6 well plastic plates were treated with 50 or 250 µM DHEA, 10 or 50 µM 16α-BrEA, or vehicle (25 µl DMSO). After 2 hours cells were washed twice with DPBS and scraped on ice into 1.5 ml microfuge tubes and centrifuged 250 g for 5 minutes at 4°C. The cell pellet was gently resuspended in 30 µl DPBS and lysed by addition of 30 µl lysis buffer (80 mM EDTA, 1.6% [wt/vol] sodium lauryl sarcosinate and 5 mg/ml proteinase K in 200 mM Tris-HCl buffer, pH 8.0). Lysate was incubated at 50°C for 1.5 hours. RNAse A (0.2 mg/ml) was added and the lysate was incubated for another 30 minutes at 37°C. DNA bands were separated along with a DNA ladder standard on a 1% agarose gel at 60 V for 1 hour, intercalated with ethidium bromide, and visualized and photographed under ultraviolet light. Measurement of Glucose-6-Phosphate Dehydrogenase Activity. Cultures were washed three times with cold DPBS on ice, scraped into ice cold buffer (10 mM MgCl2 in 50 mM Tris, pH 8.0) and sonicated on ice. G6PDH activity was then assayed by the method of Jones and Andrews (Jones, J.T., and Andrews, S.G., "Glucose-6-phosphate dehydrogenase activity in somatic and germinal cells of the mouse testis," J. Reproduc. Fertility, 54, 357-362 (1978)) in a reaction mixture containing 50-200 µl cell lysate, 20 µl of 10 mM β-nicotinamide adenine dinucleotide phosphate (NADP) and 20 µl of 10 mM D-glucose-6-phosphate (G6P) in a total volume of 1 ml buffer (10 mM MgCl2 in 50 mM Tris, pH 8.0). The reaction was initiated by addition of G6P. The linear increase in absorbance at 340 nm was monitored at 25°C for 300 seconds. Activity was expressed as units/mg protein, where 1.0 unit will oxidase 1.0 µmole of G6P to 6-phospho-D-gluconate per min in the presence of NADP. Protein was measured using the BCA protein assay (Rockford, IL). Immunoblot Assay for p21^ras and c-fos Proteins. For measurement of p21^ras, cells were washed twice-with cold DPBS and swelled on ice for 15 minutes with 500 µl cold lysis buffer (10 mM HEPES, 1 mM MgCl2, 1 mM EDTA, 1 µM pepstatin, 2 µg/ml aprotinin, and 1 mM phenylmethylsulfonyl fluoride). See Schulz and Nyce (1991), supra. Cells were then scraped into 1.5 ml polypropylene tubes, homogenized and clarified by centrifugation at 3,000 g for 1 minute at 4°C. The postnuclear supernatant was centrifuged 100,000 g for 30 minutes at 4°C. Supernatants were collected and pelleted membranes were resuspended in detergent buffer (1% Triton X-100, 1% sodium deoxycholate, 0.1% SDS, 150 mM NaCl, 1 µM pepstatin, 2 µg/ml aprotinin and 1 mM phenylmethylsulfonyl fluoride in 25 mM Tris, pH 7.4). Aliquots of supernatant and membrane fractions were removed for protein determination using the BCA protein assay. Bromophenol blue and β-mercaptoethanol were added to the remaining sample to a final concentration of 0.002% (wt/vol) and 5% (vol/vol), respectively. Lysates were then boiled for 5 minutes at 100°C and stored at -80°C until immunoblotting was performed.
Activity is expressed as % inhibition of DMSO vehicle-treated controls by 16α-bromoepiandrosterone (BrEA) or dehydroepiandrosterone (DHEA). DMSO alone caused no reduction in G6PDH activity under assay conditions. Each bar represents the mean of at least 3 experiments. Methods are described in the text. […]

The target of assay [2] is T1, glucose-6-phosphate dehydrogenase (G6PDH). The assay is described as follows: G6PDH activity in airway smooth muscle cell lysates, inhibitors added to the lysate. The class given is biochemical. The settings on record: 100 µl, read-out: PERCENT INHIBITION OF GLUCOSE 6-PHOSPHATE DEHYDROGENASE ACTIVITY
As to the method: as §1
as §2, with “Bromophenol blue and β-mercaptoethanol were added to the remaining sample to a final concentration of 0.002% (wt/vol) and 5% (vol/vol), respectively. Lysates were then boiled for 5 minutes at 100°C and stored at -80°C until immunoblotting was performed.” left out
Activity is expressed as % inhibition of DMSO vehicle-treated controls by 16α-bromoepiandrosterone (BrEA) or dehydroepiandrosterone (DHEA). […]

T1 sequence (P05370 whole entry): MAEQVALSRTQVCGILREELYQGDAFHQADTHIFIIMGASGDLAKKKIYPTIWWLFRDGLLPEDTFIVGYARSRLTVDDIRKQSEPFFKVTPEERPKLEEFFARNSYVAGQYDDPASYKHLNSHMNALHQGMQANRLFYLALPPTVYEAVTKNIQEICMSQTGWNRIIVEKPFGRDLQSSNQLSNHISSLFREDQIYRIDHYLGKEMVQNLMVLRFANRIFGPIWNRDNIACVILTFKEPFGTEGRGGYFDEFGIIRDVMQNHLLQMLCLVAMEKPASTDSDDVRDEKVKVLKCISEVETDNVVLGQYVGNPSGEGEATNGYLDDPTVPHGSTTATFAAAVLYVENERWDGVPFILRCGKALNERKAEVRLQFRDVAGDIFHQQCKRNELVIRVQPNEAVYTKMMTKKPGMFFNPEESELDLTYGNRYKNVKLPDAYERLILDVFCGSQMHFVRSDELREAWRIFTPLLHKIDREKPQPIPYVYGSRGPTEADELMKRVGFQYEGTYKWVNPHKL

In the case of `C[C@]12CC[C@H](O)C[C@@H]1CC[C@@H]1[C@@H]2CC[C@]2(C)C(=O)[C@H](Br)C[C@@H]12` [16α-BrEA, 16α-bromoepiandrosterone], in assay [1], the “G6PDH activity of subsequent cell lysates” value is “not significantly reduced”. In addition, in assay [2], the inhibition at 25 µM turned out to be 49% and the inhibition at 50 µM was found to be 71 ± 8%.
As to `C[C@]12CC[C@H](O)CC1=CC[C@@H]1[C@@H]2CC[C@]2(C)C(=O)CC[C@@H]12` [DHEA, dehydroepiandrosterone], the inhibition at 25 µM amounted to 0% in assay [1] (25 µM, Intact Airway Smooth Muscle monolayers pretreated 1 hour before harvest, read-out: PERCENT INHIBITION OF GLUCOSE 6-PHOSPHATE DEHYDROGENASE ACTIVITY) and 77 ± 3% in assay [2]. The inhibition at 50 µM stood at 0% in assay [1] (50 µM, Intact Airway Smooth Muscle monolayers pretreated 1 hour before harvest, read-out: PERCENT INHIBITION OF GLUCOSE 6-PHOSPHATE DEHYDROGENASE ACTIVITY) and 82 ± 3% in assay [2]. Besides, the inhibition at 100 µM was determined as 6 ± 7% in assay [1] (100 µM, Intact Airway Smooth Muscle monolayers pretreated 1 hour before harvest, read-out: PERCENT INHIBITION OF GLUCOSE 6-PHOSPHATE DEHYDROGENASE ACTIVITY) and 93 ± 3% in assay [2] (100 µM). Moreover, the inhibition at 250 µM in assay [1] (250 µM, Intact Airway Smooth Muscle monolayers pretreated 1 hour before harvest, read-out: PERCENT INHIBITION OF GLUCOSE 6-PHOSPHATE DEHYDROGENASE ACTIVITY) was 24 ± 9%. In addition, in assay [1], the “G6PDH activity of subsequent cell lysates” value is “not significantly reduced”.
